Measurements taken from ChEMBL document CHEMBL1158459, “Discovery of a peroxisome proliferator activated receptor gamma (PPARgamma) modulator with balanced PPARalpha activity for the treatment of type 2 diabetes and dyslipidemia” (J Med Chem, 2009).
Calls of active or inactive are those of the source. The rule behind the calls is not given here.

How the values were obtained:
[1] = target: T1, Peroxisome proliferator-activated receptor alpha (Homo sapiens, UniProt Q07869); assay type: functional, cell-based, COS-1
T1 sequence (Q07869 whole entry): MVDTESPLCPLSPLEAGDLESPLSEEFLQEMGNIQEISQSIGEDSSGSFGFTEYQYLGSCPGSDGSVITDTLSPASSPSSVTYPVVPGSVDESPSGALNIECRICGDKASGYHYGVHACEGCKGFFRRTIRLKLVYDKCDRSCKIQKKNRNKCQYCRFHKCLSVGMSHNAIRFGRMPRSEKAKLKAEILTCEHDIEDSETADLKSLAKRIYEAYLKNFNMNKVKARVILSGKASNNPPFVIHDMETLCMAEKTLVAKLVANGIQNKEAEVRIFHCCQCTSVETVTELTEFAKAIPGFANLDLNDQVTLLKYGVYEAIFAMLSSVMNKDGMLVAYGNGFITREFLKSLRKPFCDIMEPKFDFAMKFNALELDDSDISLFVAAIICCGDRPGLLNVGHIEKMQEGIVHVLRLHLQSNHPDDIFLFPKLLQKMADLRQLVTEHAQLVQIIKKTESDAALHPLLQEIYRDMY
Description: Agonist activity at human PPARalpha receptor expressed in african green monkey COS1 cells co-transfected with fused yeast Gal4-DBD by transactivation assay

[2] = target: T2, Peroxisome proliferator-activated receptor alpha (Mus musculus, UniProt P23204); assay: Agonist activity at mouse PPARalpha receptor expressed in african green monkey COS1 cells co-transfected with fused yeast Gal4-DBD by transactivation assay; assay type: functional, cell-based, COS-1
T2 sequence (P23204 whole entry): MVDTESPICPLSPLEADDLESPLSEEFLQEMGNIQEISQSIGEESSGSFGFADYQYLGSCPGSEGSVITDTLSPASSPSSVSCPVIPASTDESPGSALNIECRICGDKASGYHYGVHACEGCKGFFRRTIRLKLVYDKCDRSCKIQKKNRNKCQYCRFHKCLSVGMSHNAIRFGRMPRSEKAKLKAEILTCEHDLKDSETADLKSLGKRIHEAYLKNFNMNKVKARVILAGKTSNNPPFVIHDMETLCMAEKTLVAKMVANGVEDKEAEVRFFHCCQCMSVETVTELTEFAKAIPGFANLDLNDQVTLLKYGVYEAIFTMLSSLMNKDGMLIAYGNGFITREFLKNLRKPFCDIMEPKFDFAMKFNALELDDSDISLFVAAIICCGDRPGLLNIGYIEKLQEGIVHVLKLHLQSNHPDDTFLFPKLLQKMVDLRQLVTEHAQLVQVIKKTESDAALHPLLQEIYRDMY

[3] = tested on: Mus musculus; assay: Antidiabetic activity in C57BLKS/J-m+/+Leprdb db/db mouse assessed as reduction in plasma glucose levels at 10 mg/kg, po once daily for 11 days relative to control; assay type: functional; parameters: scale not given: the % may be the effect or the level left
[4] = (§1) AUC in rat at 2 mg/kg, po; assay type: ADME, organism-based, Plasma; parameters: dose 2 mg/kg, route oral; conditions: plasma
[5] = tested on: Mus musculus; assay: Antidiabetic activity in C57BLKS/J-m+/+Leprdb db/db mouse assessed as reduction in plasma triglyceride levels at 10 mg/kg, po once daily for 11 days relative to control; assay type: functional; parameters: scale not given: the % may be the effect or the level left
[6] = target: T1, Peroxisome proliferator-activated receptor alpha; assay: Inhibition of human PPARalpha receptor by scintillation proximity assay
[7] = tested on: Rattus norvegicus; assay: Antidiabetic activity in Zucker fa/fa rat assessed as decrease in triglyceride levels at 100 mg/kg, po once daily for 7 days; assay type: functional, organism-based; parameters: dose 100 mg/kg
[8] = tested on: Rattus norvegicus; assay: Antidiabetic activity in Zucker fa/fa rat assessed as decrease in triglyceride levels at 3 mg/kg, po once daily for 7 days; assay type: functional, organism-based; parameters: dose 3 mg/kg
[9] = AUC in Sprague-Dawley rat at 150 mg/kg, po once daily for 14 days; assay type: ADME, organism-based; parameters: dose 150 mg/kg, route oral; conditions: plasma
[10] = tested on: Mus musculus; assay: Antidiabetic activity in high fat diet-fed streptozotocin-treated mouse assessed as reduction in plasma glucose levels at 5 mg/kg, po once daily for 12 days relative to control; assay type: functional; parameters: scale not given: the % may be the effect or the level left
[11] = tested on: Rattus norvegicus; assay: Antidiabetic activity in Zucker fa/fa rat assessed as decrease in triglyceride levels at 15 mg/kg, po once daily for 7 days; assay type: functional, organism-based; parameters: dose 15 mg/kg
[12] = tested on: Rattus norvegicus; assay: Antidiabetic activity in Zucker fa/fa rat assessed as decrease in triglyceride levels at 10 mg/kg, po once daily for 7 days; assay type: functional, organism-based; parameters: dose 10 mg/kg
[13] = tested on: Rattus norvegicus; assay: Antidiabetic activity in Zucker fa/fa rat assessed as decrease in triglyceride levels at 1 mg/kg, po once daily for 7 days; assay type: functional, organism-based; parameters: dose 1 mg/kg
[14] = tested on: Rattus norvegicus; assay: Antidiabetic activity in po dosed Zucker fa/fa rat assessed as insulin lowering activity treated once daily for 7 days; assay type: functional
[15] = tested on: Rattus norvegicus; assay: Antidiabetic activity in Zucker fa/fa rat assessed as decrease in triglyceride levels at 0.03 mg/kg, po once daily for 7 days; assay type: functional, organism-based; parameters: dose 0.03 mg/kg
[16] = tested on: Rattus norvegicus; assay: Antidiabetic activity in Zucker fa/fa rat assessed as decrease in triglyceride levels at 0.3 mg/kg, po once daily for 7 days; assay type: functional, organism-based; parameters: dose 0.3 mg/kg
[17] = Cmax in C57BLKS/J-m+/+Leprdb db/db mouse at 10 mg/kg, po once daily for 11 days; assay type: ADME, organism-based; parameters: dose 10 mg/kg, route oral; conditions: in vivo
[18] = tested on: Mus musculus; assay: Antidiabetic activity in high fat diet-fed streptozotocin-treated mouse assessed as reduction in plasma glucose levels at 30 mg/kg, po once daily for 12 days relative to control; assay type: functional; parameters: scale not given: the % may be the effect or the level left
[19] = tested on: Rattus norvegicus; assay: as §1; assay type: ADME, organism-based, Plasma; parameters: dose 2 mg/kg, route oral; conditions: in vivo
[20] = target: T3, Peroxisome proliferator-activated receptor gamma (Homo sapiens, UniProt P37231)
T3 sequence (P37231 whole entry): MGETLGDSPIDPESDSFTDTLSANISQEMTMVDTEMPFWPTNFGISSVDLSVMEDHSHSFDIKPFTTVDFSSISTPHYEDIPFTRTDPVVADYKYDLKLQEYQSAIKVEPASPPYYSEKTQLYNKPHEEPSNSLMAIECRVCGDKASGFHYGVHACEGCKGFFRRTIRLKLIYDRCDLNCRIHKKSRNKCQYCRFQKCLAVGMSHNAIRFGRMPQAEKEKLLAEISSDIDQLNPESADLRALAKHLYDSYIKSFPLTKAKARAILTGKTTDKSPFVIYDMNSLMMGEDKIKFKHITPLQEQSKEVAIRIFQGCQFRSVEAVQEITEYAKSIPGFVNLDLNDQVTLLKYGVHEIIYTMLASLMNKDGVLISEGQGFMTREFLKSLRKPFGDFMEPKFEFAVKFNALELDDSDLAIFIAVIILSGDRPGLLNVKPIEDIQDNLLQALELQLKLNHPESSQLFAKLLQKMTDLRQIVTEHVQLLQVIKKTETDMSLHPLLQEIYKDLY
Description: (§2) Agonist activity at human PPARgamma receptor expressed in african green monkey COS1 cells co-transfected with fused yeast Gal4-DBD by transactivation assay

[21] = target: T3, Peroxisome proliferator-activated receptor gamma; remark: listed apart in the source
Description: Inhibition of human PPARgamma receptor by scintillation proximity assay

[22] = target: T3, Peroxisome proliferator-activated receptor gamma; conditions: cos-1
Description: as §2

[23] = tested on: Canis familiaris; assay: Antidiabetic activity in Beagle dog assessed as reduction in total cholesterol level at 4 mg/kg, po once daily for 14 days relative to control; assay type: functional, Canis lupus familiaris; parameters: scale not given: the % may be the effect or the level left
[24] = AUC in C57BLKS/J-m+/+Leprdb db/db mouse at 10 mg/kg, po once daily for 11 days; assay type: ADME, organism-based; parameters: dose 10 mg/kg, route oral; conditions: plasma

SMILES | EC50 [1] | EC50 [2] | Activity [3] | AUC [4] | Activity [5] | IC50 [6] | EC50 [20] | IC50 [21] | further results
Cc1c(C(=O)c2ccc(Cl)cc2)c2ccc(OC(F)(F)F)cc2n1Cc1cccc(O[C@@H](C)C(=O)O)c1 | 4890 nM | > 3000 nM | 53% | 0.6 µM·h | 4% | > 15000 nM | – | – | –
CN(CCOc1ccc(CC2SC(=O)NC2=O)cc1)c1ccccn1 (centres undefined) [ROSIGLITAZONE] | – | > 3000 nM | 76% | 16.4 µM·h | 71% | – | – | – | Activity [7]: Active; Activity [8]: Active; AUC at 336 h [9]: 600 µM·h; Activity [10]: 36%; Activity [11]: Active; Activity [12]: Active; Activity [13]: Active; ED50 [14]: 25 µM·h; Activity [15]: Active; Activity [16]: Active; Cmax [17]: 68 µM; Activity [18]: 45%
CC[C@@](C)(Oc1cccc(Cn2c(C)c(C(=O)c3ccc(Cl)cc3)c3ccc(OC(F)(F)F)cc32)c1)C(=O)O (stereo in doubt; 12j) | 129 nM | > 1000 nM | – | – | – | 764 nM | 2 nM | 5 nM | Activity ([3]; 10 mg/kg): 45%; AUC [19]: 2.8 µM·h; Activity ([5]; 10 mg/kg): 3%
Cc1c(C(=O)c2ccc(Cl)cc2)c2ccc(OC(F)(F)F)cc2n1Cc1cccc(OCC(=O)O)c1 | > 3000 nM | 350 nM | – | – | – | > 15000 nM | 2 nM | 2 nM | –
Cc1c(Cc2cccc(OCC(=O)O)c2)c2cc(OC(F)(F)F)ccc2n1C(=O)c1ccc(Cl)cc1 | > 3000 nM | > 3000 nM | – | – | – | > 15000 nM | 3 nM | 1 nM | –
Cc1c(C(=O)c2ccc(Cl)cc2)c2ccc(OC(F)(F)F)cc2n1Cc1cccc(O[C@H](C(=O)O)C(C)C)c1 | 370 nM | 360 nM | 76% | 1.5 µM·h | 37% | 2980 nM | 21 nM | 17 nM | –
CCC[C@H](Oc1cccc(Cn2c(C)c(C(=O)c3ccc(Cl)cc3)c3ccc(OC(F)(F)F)cc32)c1)C(=O)O | > 3000 nM | > 3000 nM | 22% | 1.2 µM·h | 8% | > 50000 nM | 1 nM | 8 nM | –
CCC[C@@H](Oc1cccc(Cn2c(C)c(C(=O)c3ccc(Cl)cc3)c3ccc(OC(F)(F)F)cc32)c1)C(=O)O | 380 nM | 110 nM | 94% | 1.7 µM·h | 80% | > 15000 nM | 10 nM | 12 nM | –
Cc1c(C(=O)c2ccc(Cl)cc2)c2ccc(OC(F)(F)F)cc2n1Cc1cccc(O[C@H](C)C(=O)O)c1 | 320 nM | 28 nM | 105% | 1.1 µM·h | 90% | > 15000 nM | 4 nM | 11 nM | –
Cc1c(C(=O)c2ccc(Cl)cc2)c2ccc(OC(F)(F)F)cc2n1Cc1cccc(O[C@@H](C(=O)O)C(C)C)c1 | 2 nM | 40 nM | 101% | 3.5 µM·h | 87% | 491 nM | 2 nM | 10 nM | –
CC[C@@](C)(Oc1cccc(Cn2c(C)c(C(=O)c3ccc(Cl)cc3)c3ccc(OC(F)(F)F)cc32)c1)C(=O)O (stereo in doubt; 12i) | 107 nM | – | – | – | – | 87 nM | – | 9 nM | EC50 ([2]; cos-1): > 1000 nM; Activity ([3]; 10 mg/kg): 71%; AUC [19]: 1.3 µM·h; EC50 [22]: 2 nM; Activity ([5]; 10 mg/kg): 51%
CCC(C)(C)C(=O)O[C@H]1C[C@@H](C)C=C2C=C[C@H](C)[C@H](CC[C@@H]3C[C@@H](O)CC(=O)O3)[C@H]21 [SIMVASTATIN] | – | – | – | – | – | – | – | – | Activity [23]: 18.4%
CC[C@H](Oc1cccc(Cn2c(C)c(C(=O)c3ccc(Cl)cc3)c3ccc(OC(F)(F)F)cc32)c1)C(=O)O | 500 nM | > 3000 nM | 22% | – | 7% | > 15000 nM | 6 nM | 4 nM | –
CCc1ccc(CCOc2ccc(CC3SC(=O)NC3=O)cc2)nc1 (centres undefined) [PIOGLITAZONE] | – | – | 53% | – | 65% | – | – | – | AUC at 264 h [24]: 180 µM·h
Cc1c(C(=O)c2ccc(Cl)cc2)c2ccc(OC(F)(F)F)cc2n1Cc1cccc(OC2(C(=O)O)CCC2)c1 | 185 nM | 150 nM | – | – | – | 1080 nM | 12 nM | 16 nM | –
